Assay results taken from US10681909B2, “Herbicidal triazoles” (FMC Corporation, priority 2014, dated 2020).

Tests used:
pigweed, palmer = experiment: Test E postemergence; format: in vivo, Amaranthus palmeri; conditions: scale 0 to 100
From the text: (§1) Seeds of plant species selected from corn (Zea mays), soybean (Glycine max), lambsquarters (Chenopodium album), poinsettia, wild (wild poinsettia, Euphorbia heterophylla), pigweed, palmer (palmer pigweed, Amaranthus palmeri), waterhemp (common waterhemp, Amaranthus rudis), surinam grass (Brachiaria decumbens), crabgrass, large (large crabgrass, Digitaria sanguinalis), crabgrass, Brazilian (Brazilian crabgrass, Digitaria horizontalis), panicum, fall (fall panicum, Panicum dichotomiflorum), foxtail, giant (giant foxtail, Setaria faberii), foxtail, green (green foxtail, Setaria viridis), goosegrass (Eleusine indica), johnsongrass (Sorghum halepense), ragweed (common ragweed, Ambrosia elatior), barnyardgrass (Echinochloa crus-galli), sandbur (southern sandbur, Cenchrus echinatus), arrowleaf sida (Sida rhombifolia), ryegrass, Italian (Italian ryegrass, Lolium multiflorum), dayflower, VA (Virginia dayflower, Commelina virginica), field bindweed (Convolvulus arvensis), cocklebur (common cocklebur, Xanthium strumarium), morningglory (Ipomoea coccinea), nightshade (eastern black nightshade, Solanum ptycanthum), kochia (Kochia scoparia), nutsedge, yellow (yellow nutsedge, Cyperus esculentus), smartweed (ladysthumb smartweed, Polygonum persicaria), velvetleaf (Abutilon theophrasti), horseweed (Conyza canadensis), and beggarticks (hairy beggarticks, Bidens pilosa), were planted into a silt loam soil and treated preemergence with test chemicals formulated in a non-phytotoxic solvent mixture which included a surfactant.
(§2) At the same time, plants from these crop and weed species and also waterhemp_RES1, (ALS & Triazine resistant common waterhemp, Amaranthus rudis), and waterhemp_RES2, (ALS & HPPD resistant common waterhemp, Amaranthus rudis) were planted in pots containing Sunshine Redi-Earth® planting medium comprising spaghnum peat moss, vermiculite, starter nutrients and dolomitic limestone were treated with postemergence applications of test chemicals formulated in the same manner. Plants ranged in height from 2 to 18 cm for postemergence treatments (1- to 4-leaf stage). Treated plants and controls were maintained in a greenhouse for 14 to 21 d, after which time all species were compared to controls and visually evaluated. Plant response ratings, summarized in Table E, are based on a scale of 0 to 100 where 0 is no effect and 100 is complete control. A dash (-) response means no test result.

goosegrass = experiment: Test E preemergence; format: in vivo, Eleusine indica; conditions: scale 0 to 100
From the text: as §1, §2

foxtail, giant = experiment: Test E preemergence; format: in vivo, Setaria faberii; conditions: scale 0 to 100
From the text: as §1, §2

sandbur [1] = experiment: Test E postemergence; format: in vivo, Cenchrus echinatus; conditions: scale 0 to 100
From the text: as §1, §2

soybean = experiment: Test E postemergence; format: in vivo, Glycine max; conditions: scale 0 to 100
From the text: as §1, §2

crabgrass, Brazilian = experiment: Test E preemergence; format: in vivo, Digitaria horizontalis; conditions: Brazil, scale 0 to 100
From the text: as §1, §2

johnsongrass [2] = experiment: Test C preemergence; format: in vivo, Sorghum halepense; conditions: for Plant response rating (scale of 0 to 100 where 0 is no effect and 100 is complete control): Johnsongrass, preemergence; for Johnsongrass plant response rating (0 to 100): Preemergence, visual rating after 13 to 15 d
From the text: Seeds of plant species selected from blackgrass (Alopecurus myosuroides), ryegrass, Italian (Italian ryegrass, Lolium multiflorum), wheat (winter wheat, Triticum aestivum), galium (catchweed bedstraw, Galium aparine), corn (Zea mays), crabgrass, large (large crabgrass, Digitaria sanguinalis), foxtail, giant, (giant foxtail, Setaria faberii), johnsongrass (Sorghum halepense), lambsquarters (Chenopodium album), morningglory (Ipomoea coccinea), nutsedge, yellow (yellow nutsedge, Cyperus esculentus), pigweed (Amaranthus retroflexus), ragweed (common ragweed, Ambrosia elatior), soybean (Glycine max), barnyardgrass (Echinochloa crus-galli), oilseed rape (Brassica napus), waterhemp (common waterhemp, Amaranthus rudis), and velvetleaf (Abutilon theophrasti) were planted into a blend of loam soil and sand and treated preemergence with test chemicals formulated in a non-phytotoxic solvent mixture which included a surfactant. At the same time, plants selected from these crop and weed species and also chickweed (common chickweed, Stellaria media), oat, wild (wild oat, Avena fatua), and kochia (Kochia scoparia), were planted in pots containing Sunshine Redi-Earth® planting medium comprising spaghnum peat moss, vermiculite, starter nutrients and dolomitic limestone and treated with postemergence applications of test chemicals formulated in the same manner. Plants ranged in height from 2 to 18 cm (1- to 4-leaf stage) for postemergence treatments. […] A dash (-) response means no test result.

poinsettia, wild = experiment: Test E preemergence; format: in vivo, Euphorbia heterophylla; conditions: scale 0 to 100
From the text: as §1, §2

sandbur [3] = experiment: Test E preemergence; format: in vivo, Cenchrus echinatus; conditions: scale 0 to 100
From the text: as §1, §2

ryegrass, Italian = experiment: Test E preemergence; format: in vivo, Lolium multiflorum; conditions: scale 0 to 100
From the text: as §1, §2

panicum, fall = experiment: Test E preemergence; format: in vivo, Panicum dichotomiflorum; conditions: scale 0 to 100
From the text: as §1, §2

arrowleaf sida = experiment: Test E preemergence; format: in vivo, Sida rhombifolia; conditions: scale 0 to 100
From the text: as §1, §2

corn [4] = experiment: Test E preemergence; format: in vivo, Zea mays; conditions: scale 0 to 100
From the text: as §1, §2

corn [5] = experiment: Test E postemergence; format: in vivo, Zea mays; conditions: scale 0 to 100
From the text: as §1, §2

johnsongrass [6] = experiment: Test E preemergence; format: in vivo, Sorghum halepense; conditions: scale 0 to 100
From the text: as §1, §2

ragweed = experiment: Test E postemergence; format: in vivo, Ambrosia elatior; conditions: scale 0 to 100
From the text: as §1, §2

CCc1nc(-c2ccc(C(F)(F)F)cc2)nn1Cc1ccnc(C(F)(F)F)c1 [Compound 1, 4-[[5-ethyl-3-[4-(trifluoromethyl)phenyl]-1H-1,2,4-triazol-1-yl]methyl]-2-(trifluoromethyl)pyridine]
Plant response rating (pigweed, palmer; 16 g ai/ha): 80 | Plant response rating (pigweed, palmer; 31 g ai/ha): 90 | Plant response rating (pigweed, palmer; 62 g ai/ha): 90 | Plant response rating (pigweed, palmer; 125 g ai/ha): 100 | Plant response rating (pigweed, palmer; 250 g ai/ha): 100 | Plant response rating (goosegrass; 16 g ai/ha): 50 | Plant response rating (goosegrass; 31 g ai/ha): 60 | Plant response rating (goosegrass; 62 g ai/ha): 60 | Plant response rating (goosegrass; 125 g ai/ha): 75 | Plant response rating (goosegrass; 250 g ai/ha): 100 | Plant response rating (foxtail, giant; 16 g ai/ha): 20 | Plant response rating (foxtail, giant; 31 g ai/ha): 30 | Plant response rating (foxtail, giant; 62 g ai/ha): 80 | Plant response rating (foxtail, giant; 125 g ai/ha): 80 | Plant response rating (foxtail, giant; 250 g ai/ha): 98 | Plant response rating (sandbur [1]; 16 g ai/ha): 10 | Plant response rating (sandbur [1]; 31 g ai/ha): 15 | Plant response rating (sandbur [1]; 62 g ai/ha): 15 | Plant response rating (sandbur [1]; 125 g ai/ha): 20 | Plant response rating (sandbur [1]; 250 g ai/ha): 20 | Plant response rating (soybean; 16 g ai/ha): 40 | Plant response rating (soybean; 31 g ai/ha): 40 | Plant response rating (soybean; 62 g ai/ha): 50 | Plant response rating (soybean; 125 g ai/ha): 50 | Plant response rating (soybean; 250 g ai/ha): 65 | Plant response rating (crabgrass, Brazilian; 62 g ai/ha): 98 | Plant response rating (crabgrass, Brazilian; 125 g ai/ha): 98 | Plant response rating (crabgrass, Brazilian; 250 g ai/ha): 100 | Plant response rating (scale of 0 to 100 where 0 is no effect and 100 is complete control) (johnsongrass [2]; 125 g ai/ha): 55 | Plant response rating (scale of 0 to 100 where 0 is no effect and 100 is complete control) (johnsongrass [2]; 250 g ai/ha): 80 | Johnsongrass plant response rating (0 to 100) (johnsongrass [2]; 31 g ai/ha): 25 | Johnsongrass plant response rating (0 to 100) (johnsongrass [2]; 62 g ai/ha): 35 | Plant response rating (poinsettia, wild; 16 g ai/ha): 10 | Plant response rating (poinsettia, wild; 31 g ai/ha): 30 | Plant response rating (poinsettia, wild; 62 g ai/ha): 40 | Plant response rating (poinsettia, wild; 125 g ai/ha): 40 | Plant response rating (poinsettia, wild; 250 g ai/ha): 50 | Plant response rating (sandbur [3]; 16 g ai/ha): 0 | Plant response rating (sandbur [3]; 31 g ai/ha): 10 | Plant response rating (sandbur [3]; 62 g ai/ha): 20 | Plant response rating (sandbur [3]; 125 g ai/ha): 40 | Plant response rating (sandbur [3]; 250 g ai/ha): 50 | Plant response rating (ryegrass, Italian; 16 g ai/ha): 0 | Plant response rating (ryegrass, Italian; 31 g ai/ha): 0 | Plant response rating (ryegrass, Italian; 62 g ai/ha): 20 | Plant response rating (ryegrass, Italian; 125 g ai/ha): 20 | Plant response rating (ryegrass, Italian; 250 g ai/ha): 40 | Plant response rating (panicum, fall; 16 g ai/ha): 15 | Plant response rating (panicum, fall; 31 g ai/ha): 60 | Plant response rating (panicum, fall; 62 g ai/ha): 80 | Plant response rating (panicum, fall; 125 g ai/ha): 100 | Plant response rating (panicum, fall; 250 g ai/ha): 100 | Plant response rating (arrowleaf sida; 16 g ai/ha): 0 | Plant response rating (arrowleaf sida; 31 g ai/ha): 10 | Plant response rating (arrowleaf sida; 62 g ai/ha): 20 | Plant response rating (arrowleaf sida; 125 g ai/ha): 20 | Plant response rating (arrowleaf sida; 250 g ai/ha): 50 | Plant response rating (corn [4]; 16 g ai/ha): 0 | Plant response rating (corn [4]; 31 g ai/ha): 0 | Plant response rating (corn [4]; 62 g ai/ha): 10 | Plant response rating (corn [4]; 125 g ai/ha): 25 | Plant response rating (corn [4]; 250 g ai/ha): 35 | Plant response rating (corn [5]; 16 g ai/ha): 5 | Plant response rating (corn [5]; 31 g ai/ha): 5 | Plant response rating (corn [5]; 62 g ai/ha): 5 | Plant response rating (corn [5]; 125 g ai/ha): 10 | Plant response rating (corn [5]; 250 g ai/ha): 10 | Plant response rating (johnsongrass [6]; 16 g ai/ha): 10 | Plant response rating (johnsongrass [6]; 31 g ai/ha): 15 | Plant response rating (johnsongrass [6]; 62 g ai/ha): 40 | Plant response rating (johnsongrass [6]; 125 g ai/ha): 50 | Plant response rating (johnsongrass [6]; 250 g ai/ha): 60

COc1nc(-c2ccc(Cl)cc2)nn1Cc1ccnc(C(F)(F)F)c1 [Compound 28]
Plant response rating (ragweed; 31 g ai/ha): 40 | Plant response rating (ragweed; 62 g ai/ha): 40 | Plant response rating (ragweed; 125 g ai/ha): 40 | Plant response rating (ragweed; 250 g ai/ha): 50 | Plant response rating (pigweed, palmer; 31 g ai/ha): 100 | Plant response rating (pigweed, palmer; 62 g ai/ha): 90 | Plant response rating (pigweed, palmer; 125 g ai/ha): 90 | Plant response rating (pigweed, palmer; 250 g ai/ha): 95 | Plant response rating (sandbur [1]; 31 g ai/ha): 20 | Plant response rating (sandbur [1]; 62 g ai/ha): 30 | Plant response rating (sandbur [1]; 125 g ai/ha): 30 | Plant response rating (sandbur [1]; 250 g ai/ha): 40 | Plant response rating (soybean; 31 g ai/ha): 70 | Plant response rating (soybean; 62 g ai/ha): 75 | Plant response rating (soybean; 125 g ai/ha): 95 | Plant response rating (soybean; 250 g ai/ha): 80 | Plant response rating (corn [5]; 31 g ai/ha): 15 | Plant response rating (corn [5]; 62 g ai/ha): 20 | Plant response rating (corn [5]; 125 g ai/ha): 20 | Plant response rating (corn [5]; 250 g ai/ha): 30
